Paper PMC4886532, “A highly soluble, non-phototoxic, non-fluorescent blebbistatin derivative” (Scientific Reports, 2016)
Where two headings read alike, the source gives them in different places.

How the values were obtained:
zebrafish embryo = system: zebrafish embryo; set-up: method as in PMID 24954740; conditions: after 24 hours of incubation; cited from earlier work
[1] = cited from earlier work
[2] = system: rabbit skeletal muscle myosin II; set-up: method as in PMID 15205456; conditions: cited from earlier work
[3] = Photoconversion / photostability under 480 ± 10 nm irradiation; conditions: 5 μM, up to 15 minutes
Procedure: We compared para-aminoblebbistatin’s photostability to blebbistatin’s by irradiating the molecules in assay buffer at 480 ± 10 nm for different lengths of time (which is a typical GFP excitation range) and recorded the absorption spectra afterwards (Fig. 2d).
Their absorbance spectra were measured at each time point.

zebrafish embryos = test: Lifespan cytotoxicity assay; conditions: all blebbistatin concentrations
Procedure: Transgenic Tg(−8.0cldnb:lynEGFP)^zf106 (cldnb:EGFP)[25] zebrafish (Danio rerio) were maintained in the animal facility of Eötvös Loránd University. For the experiments investigating the skeletal and heart muscle of zebrafish, 6 dpf embryos were used. For cytotoxicity assays, 2 dpf embryos were dechorionated and placed in the indicated reagent concentrations. Embryos were kept in E3 medium (5 mM NaCl, 0.33 mM MgCl2, 0.33 mM CaCl2 and 0.17 mM KCl).
For the fast escape response experiments, 6 dpf embryos were placed in 50 μl drops of E3 medium on a plastic plate. […] 10 taps were carried out with 1 minute intervals every hour for 4 hours. The tapping force was standardized. The videos were recorded by a Ximea Camera (MQ003MG-CM) at 500 fps for 2 s. Data were analyzed by Flote software version 2.1 and maximal angular velocity parameters of C-start reflex were quantified. For the experiments investigating the effect of the inhibitors on the heart muscle of zebrafish, 6 dpf larvae were embedded in 1% agarose and kept in E3 in the presence of 20 μM concentrations of the inhibitors. […] Embryos were considered to be dead when the whole body became necrotic and the heart stopped beating. Dead embryos were removed from the experiment to prevent contamination. Images of zebrafish were captured with a Zeiss Stereo Lumar V12 microscope using a NeoLumar S 0.8x FWD 80mm objective at 50× zoom.

smooth muscle myosin II = system: smooth muscle myosin II; set-up: method as in PMID 15548862; conditions: read-out: IC50 actin activated ATPase activity; cited from earlier work
[4] = molecular target: T1, Dictyostelium discoideum myosin II motor domain (DdMD) (Dictyostelium discoideum, UniProt P08799); test: biochemical; conditions: for IC50: 20 °C
T1 construct: Dictyostelium discoideum myosin II motor domain (DdMD)
T1 sequence (P08799 86-759 limits assumed): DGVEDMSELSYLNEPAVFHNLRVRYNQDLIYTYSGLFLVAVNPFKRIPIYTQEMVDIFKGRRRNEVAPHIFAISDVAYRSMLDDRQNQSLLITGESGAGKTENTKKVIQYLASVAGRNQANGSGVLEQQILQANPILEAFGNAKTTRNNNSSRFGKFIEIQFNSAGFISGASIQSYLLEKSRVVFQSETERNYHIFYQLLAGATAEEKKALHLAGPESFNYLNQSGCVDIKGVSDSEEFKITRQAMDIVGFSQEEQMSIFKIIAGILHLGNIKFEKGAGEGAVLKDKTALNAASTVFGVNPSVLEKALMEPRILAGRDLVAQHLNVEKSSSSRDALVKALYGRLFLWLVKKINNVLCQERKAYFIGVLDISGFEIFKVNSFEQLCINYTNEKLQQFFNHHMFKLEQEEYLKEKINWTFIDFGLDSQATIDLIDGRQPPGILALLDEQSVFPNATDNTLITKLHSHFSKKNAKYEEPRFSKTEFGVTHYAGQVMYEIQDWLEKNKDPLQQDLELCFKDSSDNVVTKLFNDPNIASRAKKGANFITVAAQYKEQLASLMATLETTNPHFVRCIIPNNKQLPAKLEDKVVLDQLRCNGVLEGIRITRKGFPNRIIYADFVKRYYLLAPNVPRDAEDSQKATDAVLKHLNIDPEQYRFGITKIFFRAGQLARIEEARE
Procedure: Myosin and actin together with the indicated concentration of the inhibitor were pre-incubated for 5 minutes at room temperature and the measurements were initiated with 1 mM ATP. Data were corrected for background ATPase activity of actin. G-actin was prepared accordingly from rabbit skeletal muscle[24] and polymerized by 2 mM MgCl2 for 1 hour at room temperature. Measurements were performed in low salt buffer containing 5 mM HEPES, 2 mM MgCl2, 0.1 mM EGTA and 2 mM DTT at pH 7.2 or assay buffer containing 20 mM HEPES, 40 mM NaCl, 4 mM MgCl2 at pH 7.3 for basal ATPase activity measurements with DdMD.

[5] = system: HeLa Kyoto H2B-mCherry eGFP-α-tubulin cells; test: Cell growth assay (cell number, cytokinesis)
Procedure: Cells incubated in different concentrations of the inhibitors were counted on each day for three days.

Structure (SMILES)	Toxicity in live zebrafish embryo tests (zebrafish embryo)	Solubility (limited solubility) ([1]; depending on the conditions of the measurements) [µM]	Concentration above which slow precipitation is observed ([1]; water)	on-rate constant kon [2] [M⁻¹ s⁻¹]	Photostability: change of absorption spectrum on irradiation [3]	Time at which all embryos died (zebrafish embryos) [h]	IC50 (smooth muscle myosin II) [µM]	Maximal inhibition of actin activated ATPase of DdMD [4] [%]	Maximal inhibition of basal ATPase of DdMD [4] [%]	IC50 ([4]; 15 μM actin, read-out: IC50 actin activated ATPase activity of DdMD) [µM]	IC50 ([4]; read-out: IC50 basal ATPase of DdMD) [µM]	Fold higher IC50 of AmBleb on DdMD ([4]; comparator not named (matches actin activated ratio to Bleb)) [times]	IC50 ([5]; Homo sapiens, HeLa Kyoto, 72 h, read-out: IC50 of the inhibition of cell proliferation) [µM]	Fold weaker IC50 than blebbistatin's (cell proliferation) ([5]; day 3)
Cc1ccc2c(c1)C(=O)C1(O)CCN(c3ccccc3)C1=N2 (centres unmarked) [blebbistatin]	highly toxic	7 to 20	above 10 μM	3400	changed markedly	69	79.6	–	–	–	–	–	–	–
Cc1ccc2c(c1)C(=O)[C@]1(O)CCN(c3ccc(N)cc3)C1=N2 [para-aminoblebbistatin]	–	–	–	–	–	–	–	80	90	6.7 ± 1.9	6.6 ± 2	1.7	17.8 ± 4.7	2–3 times
